{"source": "patent US5723114A", "about": "“Penetration enhancing compositions and methods of their use” (Cellegy Pharmaceuticals Inc., priority 1996, dated 1998)", "key": {"[1]": {"system": "skin barrier (flanks of hairless mice)", "experiment": "TEWL topical studies: barrier recovery after acetone or tape stripping with topical proton-pump inhibitors", "format": "in vivo", "details": "DCCD-treated skin immersed in an acidic buffer", "method": "Proton-pump inhibitors: N,N'-dicyclohexylcarbodiimide (DCCD); 1-10 mM); N-ethyl maleimide (NEM; 1 mM); 7-chloro-4-nitrobenz-2-oxa-1,3-diazole (NBD Cl; 1 mM) and bafilomycin A1 (10 μM) were prepared in vehicle (i.e., 70% propylene glycol, 30% ethanol). Flanks of hairless mice were pre-treated for 30 minutes to 1 hour with drug or vehicle alone before breaking the barrier with acetone. TEWL readings were taken at various time points as described above, followed by additional treatments with drug or vehicle. The DCCD-override study included immersion of flanks in HEPES buffer at pH 5.5 or 7.4 after the pre-treatment with either drug or vehicle and after breaking the barrier with either acetone or by tape stripping.\nTest results are shown in FIG. 7 (NEM, NBD-chloride, BAF)."}, "[2]": {"experiment": "Percutaneous lidocaine delivery (scintillation counting of plasma and body)", "set-up": "species or system hairless mouse", "details": "mouse, in vivo", "method": "(§1) A female hairless mouse, aged 8 weeks, was treated with oleic acid. After oleic acid treatment, epicholesterol, which substitutes for cholesterol, or transvaccenic acid or stearyl amine, both of which substitute for free fatty acid, was applied to the animal.\n(§2) First, TEWL of the left (LHS) and right (RHS) dorsal sides was measured. Then, the animal was anesthetized by 0.25 ml chloral hydrate (CH) IP injection. At t=0, an aliquot of 30 μl oleic acid solution (5% in propylene glycol/ethanol 7:3 (v/v)) was applied directly to both sides of the animal (~1.5×3 cm) using a Hamilton syringe. Two hours after oleic acid treatment, the TEWL rates of both sides were measured, and the RHS was treated with 30 μl of epicholesterol alone and with transvaccenic acid or stearylamine (1.5% in propylene glycol/ethanol 7:3 (v/v)). TEWL was measured thereafter every 2 or 3 hours.\n(§3) The mice were kept under anesthesia until the harvest of tissue samples and then sacrificed. At time zero, the tested drug delivery compound listed in Tables 2, 3 and 4 below was applied to the whole treated flank of each mouse. After four hours TEWL was measured again and two drug formulations,one containing lidocaine in a vehicle of a mixture of propylene glycol and ethanol and the other containing Leuteinizing Hormone Releasing Hormone (LHRH) in a vehicle of 60% ethanol, 20% propylene glycol and 20% water. Residual formulation was removed from the skin surface with cotton balls three times and the cotton balls were put into vial #1. Five tape-strippings were conducted at the treated skin sites, and each tape was put into an individual vial numbered 2-6. At the same time, blood was drawn and stored under refrigeration. Urine was collected from the mice during the two hour drug application period and placed into vial #8.\nAfter an additional two hours, the treated skin was cut off, the subcutaneous fat was removed, and the whole skin was placed into vial #7 to which 1 ml of tissue solubilizer was added, and the mixture was allowed to digest overnight at 55° C. The corpse was digested in 100 ml of saponification mix at 55° C. overnight.\nFor analysis, 10 ml of Scintisafe (30% ) Scintillation media (Fisher Scientific, Fairlawn, N.J.) was added to vials 1-6, and 8. The blood samples were centrifuged, and an aliquot of 100-200 μl was placed into vial #9 and 10 ml of Scintisafe (30%) was added. Similar aliquots of the corpse digest were placed into vials #10 and #11. To vials #9, 10, and 11, 100 μl of 30% hydrogen peroxide was added to decolorize the contents for about two hours. Then […] of Scintisafe (30%) and 150 μl of acetic acid were added and the mixture was let stand overnight. All vials were subjected to scintillation counting as described above. The parameters for the vehicle are as follows: TEWL 266±22 (T=4 hours); plasma concentration 0.31±0.03%; total body concentration 13.13±0.83(% dose/ml plasma); N=14."}, "[3]": {"system": "skin barrier (stratum corneum, treated flank of hairless mouse)", "experiment": "TEWL (water permeability) after oleic acid treatment and application of drug delivery compound", "format": "in vivo", "details": "for TEWL (T = 4 hours): vehicle 266±22; for water permeability: words", "method": "as §1\nTEWL (trans-epidermal water loss) was measured before and after treatment at convenient time intervals when the animal was alert. An Evaperimeter (ServoMed) was used.\nas §2, §3"}, "[4]": {"details": "Table 2/Table 3, no hourly application, TRIS 50 mM, HEPES 20 mM"}}, "note": "Counter-ions that a name gives are not always drawn.", "data": [{"smiles": "C(=NC1CCCCC1)=NC1CCCCC1", "note": "[DCCD, N,N'-dicyclohexylcarbodiimide]", "values": [{"measurement": "barrier recovery, override study", "setting": "[1]", "value": "normalized (corrected) the rate of barrier recovery"}]}, {"smiles": "O=S(=O)(O)CCN1CCN(CCO)CC1", "note": "[HEPES, (N-[2-Hydroxyethyl]piperazine-N'-[2-ethanesulfonic acid])]", "values": [{"measurement": "lidocaine delivery", "setting": "[2]; pH 5.4", "value": "approached statistical significance (p=0.05-0.10)"}, {"measurement": "lidocaine delivery", "setting": "[2]; pH 5.5", "value": "significant increases"}, {"measurement": "lidocaine delivery", "setting": "[2]; pH 7.4", "value": "only increased water permeability was significant"}, {"measurement": "TEWL (T = 4 hours)", "setting": "[3]; Table 2/Table 3, hourly application, HEPES 20 mM, listed as HEPES (pH 5.5)", "value": "560 ± 125"}, {"measurement": "TEWL (T = 4 hours)", "setting": "[3]; Table 2/Table 3, hourly application, HEPES 20 mM, listed as HEPES (pH 7.4)", "value": "460 ± 24"}, {"measurement": "TEWL (T = 4 hours)", "setting": "[3]; [4]", "value": "360 ± 18"}, {"measurement": "water permeability", "setting": "[3]; alone, single application, pH 5.4", "value": "approached statistical significance (p=0.05-0.10)"}, {"measurement": "water permeability", "setting": "[3]; hourly to maintain pH 5.5", "value": "significant increases"}, {"measurement": "water permeability", "setting": "[3]; hourly to maintain pH 7.4", "value": "increased water permeability was significant"}]}, {"smiles": "NC(CO)(CO)CO", "note": "[TRIS, Tris(hydroxymethyl) aminomethyl maleate]", "values": [{"measurement": "lidocaine delivery", "setting": "[2]; pH 5.5", "value": "very significantly (p≤0.001) increased"}, {"measurement": "TEWL (T = 4 hours)", "setting": "[3]; [4]", "value": "583 ± 109"}, {"measurement": "water permeability", "setting": "[3]; alone, pH 5.5", "value": "significantly increased"}]}, {"smiles": "CC(C)CCC[C@@H](C)[C@H]1CC[C@H]2[C@@H]3CC=C4C[C@H](O)CC[C@]4(C)[C@H]3CC[C@]12C", "note": "[epicholesterol]", "values": [{"measurement": "Plasma Conc. (lidocaine)", "setting": "[2]", "value": "0.24 ± 0.05", "unit": "% dose/ml plasma"}, {"measurement": "Total Body Conc. (lidocaine)", "setting": "[2]", "value": "11.40 ± 1.98", "unit": "%"}, {"measurement": "lidocaine delivery", "setting": "[2]", "value": "significantly increased"}, {"measurement": "TEWL (T = 4 hours)", "setting": "[3]; Table 4, synthetic lipid analogs in propylene glycol/ethanol", "value": "397 ± 55"}]}]}
